Source: ChEMBL document CHEMBL5260810, “Inhibition of bromodomain-containing protein 9 for the prevention of epigenetically-defined drug resistance” (Bioorg Med Chem Lett, 2017)

Target: T1, Muscle, skeletal receptor tyrosine-protein kinase (Homo sapiens) (UniProt O15146)
T1 sequence (whole entry): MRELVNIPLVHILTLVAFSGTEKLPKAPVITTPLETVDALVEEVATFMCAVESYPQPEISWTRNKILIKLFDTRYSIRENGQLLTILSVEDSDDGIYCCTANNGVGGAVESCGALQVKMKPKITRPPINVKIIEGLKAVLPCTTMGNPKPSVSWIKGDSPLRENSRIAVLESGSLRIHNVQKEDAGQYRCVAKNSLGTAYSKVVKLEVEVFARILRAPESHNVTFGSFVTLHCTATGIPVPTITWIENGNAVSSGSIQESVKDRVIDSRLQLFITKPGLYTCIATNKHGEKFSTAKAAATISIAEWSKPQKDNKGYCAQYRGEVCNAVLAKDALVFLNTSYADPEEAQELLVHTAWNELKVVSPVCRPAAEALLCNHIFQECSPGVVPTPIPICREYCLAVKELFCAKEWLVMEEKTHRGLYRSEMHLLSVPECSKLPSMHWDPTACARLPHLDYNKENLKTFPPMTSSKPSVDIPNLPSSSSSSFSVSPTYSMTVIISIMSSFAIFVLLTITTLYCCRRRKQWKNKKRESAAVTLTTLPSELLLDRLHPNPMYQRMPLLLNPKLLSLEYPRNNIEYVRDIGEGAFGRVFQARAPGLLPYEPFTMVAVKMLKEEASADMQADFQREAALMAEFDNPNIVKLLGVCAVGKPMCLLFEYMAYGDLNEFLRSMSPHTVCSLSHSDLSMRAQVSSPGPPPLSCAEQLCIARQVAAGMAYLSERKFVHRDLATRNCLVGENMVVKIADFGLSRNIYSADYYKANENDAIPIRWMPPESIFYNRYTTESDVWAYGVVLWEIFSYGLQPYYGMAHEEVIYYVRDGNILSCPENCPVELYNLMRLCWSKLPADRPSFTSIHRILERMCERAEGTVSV
Assay: Inhibition of MuSK (unknown origin) at 1 uM relative to control
Conditions: not given

Structure (SMILES)	inhibition
C/C=C/Cn1cc(-c2ccc(C(=O)N3CCOCC3)cc2)c2cc[nH]c2c1=O	-2.4%

Test system: MCF7
Assay: Cytotoxicity against human MCF7 cells measured after 8 days
Assay type: functional, cell-based
Conditions: MCF7, 192 h

Structure (SMILES)	IC50
C/C=C/Cn1cc(-c2ccc(C(=O)N3CCOCC3)cc2)c2cc[nH]c2c1=O	20 µM

Test system: HCC70
Assay: Cytotoxicity against human HCC70 cells measured after 8 days
Assay type: functional, cell-based
Conditions: HCC70, 192 h

Structure (SMILES)	IC50
C/C=C/Cn1cc(-c2ccc(C(=O)N3CCOCC3)cc2)c2cc[nH]c2c1=O	20 µM

Test system: not listed separately
Assay: Cytotoxicity against human NCI-H2373 cells measured after 8 days
Assay type: functional, cell-based
Conditions: NCI-H2373, 192 h

Structure (SMILES)	IC50
C/C=C/Cn1cc(-c2ccc(C(=O)N3CCOCC3)cc2)c2cc[nH]c2c1=O	20 µM

Test system: not listed separately
Assay: Cytotoxicity against human NCI-H2810 cells measured after 8 days
Assay type: functional, cell-based
Conditions: NCI-H2810, 192 h

Structure (SMILES)	IC50
C/C=C/Cn1cc(-c2ccc(C(=O)N3CCOCC3)cc2)c2cc[nH]c2c1=O	20 µM

Test system: LoVo
Assay: Cytotoxicity against human LoVo cells measured after 8 days
Assay type: functional, cell-based
Conditions: 192 h

Structure (SMILES)	IC50
C/C=C/Cn1cc(-c2ccc(C(=O)N3CCOCC3)cc2)c2cc[nH]c2c1=O	20 µM

Test system: NCI-H1355
Assay: Cytotoxicity against human NCI-H1355 cells measured after 8 days
Assay type: functional, cell-based
Conditions: NCI-H1355, 192 h

Structure (SMILES)	IC50
C/C=C/Cn1cc(-c2ccc(C(=O)N3CCOCC3)cc2)c2cc[nH]c2c1=O	20 µM

Test system: not listed separately
Assay: Cytotoxicity against human HCC4011 cells measured after 8 days
Assay type: functional, cell-based
Conditions: HCC4011, 192 h

Structure (SMILES)	IC50
C/C=C/Cn1cc(-c2ccc(C(=O)N3CCOCC3)cc2)c2cc[nH]c2c1=O	20 µM

Test system: not listed separately
Assay: Cytotoxicity against human OVCA429 cells measured after 8 days
Assay type: functional, cell-based
Conditions: OVCA429, 192 h

Structure (SMILES)	IC50
C/C=C/Cn1cc(-c2ccc(C(=O)N3CCOCC3)cc2)c2cc[nH]c2c1=O	20 µM

Target: Nucleosome-remodeling factor subunit BPTF (Homo sapiens, UniProt Q12830)
Assay: Binding affinity to human partial length FALZ (S2791 to H2911 residues) expressed in bacterial expression system by BROMOscan assay
Conditions: not given

Structure (SMILES)	Kd
C/C=C/Cn1cc(-c2cc(OC)c(C(C)(C)O)cc2OC)c2cc(C)[nH]c2c1=O	> 10 µM
C/C=C/Cn1cc(-c2ccc(C(=O)N3CCOCC3)cc2)c2cc[nH]c2c1=O	> 10 µM

Target: T2, Muscarinic acetylcholine receptor M1 (Homo sapiens) (UniProt P11229)
T2 sequence (whole entry): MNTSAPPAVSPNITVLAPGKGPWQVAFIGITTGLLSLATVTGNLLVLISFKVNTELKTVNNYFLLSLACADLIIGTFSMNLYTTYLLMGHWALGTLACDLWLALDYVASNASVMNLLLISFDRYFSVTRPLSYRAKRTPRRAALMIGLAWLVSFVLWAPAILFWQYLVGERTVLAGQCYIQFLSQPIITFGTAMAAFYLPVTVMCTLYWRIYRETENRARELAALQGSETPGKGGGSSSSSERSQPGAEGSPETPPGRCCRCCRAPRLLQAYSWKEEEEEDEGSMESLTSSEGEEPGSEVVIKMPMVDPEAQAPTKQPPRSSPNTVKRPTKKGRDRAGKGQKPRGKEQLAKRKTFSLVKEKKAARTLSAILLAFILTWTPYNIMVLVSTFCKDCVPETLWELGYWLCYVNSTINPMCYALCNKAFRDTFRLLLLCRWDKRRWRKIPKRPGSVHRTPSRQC
Assay: Displacement of [125I]pirenzepine from human recombinant M1 receptor at 10 uM after 60 mins by scintillation counting analysis relative to control
Conditions: not given

Structure (SMILES)	Activity
C/C=C/Cn1cc(-c2ccc(C(=O)N3CCOCC3)cc2)c2cc[nH]c2c1=O	-8%

Target: Insulin receptor (Homo sapiens) (UniProt P06213)
Assay: Inhibition of InsR (unknown origin) at 1 uM relative to control
Conditions: not given

Chain of Insulin receptor (Homo sapiens) (P06213 28-758 limits assumed): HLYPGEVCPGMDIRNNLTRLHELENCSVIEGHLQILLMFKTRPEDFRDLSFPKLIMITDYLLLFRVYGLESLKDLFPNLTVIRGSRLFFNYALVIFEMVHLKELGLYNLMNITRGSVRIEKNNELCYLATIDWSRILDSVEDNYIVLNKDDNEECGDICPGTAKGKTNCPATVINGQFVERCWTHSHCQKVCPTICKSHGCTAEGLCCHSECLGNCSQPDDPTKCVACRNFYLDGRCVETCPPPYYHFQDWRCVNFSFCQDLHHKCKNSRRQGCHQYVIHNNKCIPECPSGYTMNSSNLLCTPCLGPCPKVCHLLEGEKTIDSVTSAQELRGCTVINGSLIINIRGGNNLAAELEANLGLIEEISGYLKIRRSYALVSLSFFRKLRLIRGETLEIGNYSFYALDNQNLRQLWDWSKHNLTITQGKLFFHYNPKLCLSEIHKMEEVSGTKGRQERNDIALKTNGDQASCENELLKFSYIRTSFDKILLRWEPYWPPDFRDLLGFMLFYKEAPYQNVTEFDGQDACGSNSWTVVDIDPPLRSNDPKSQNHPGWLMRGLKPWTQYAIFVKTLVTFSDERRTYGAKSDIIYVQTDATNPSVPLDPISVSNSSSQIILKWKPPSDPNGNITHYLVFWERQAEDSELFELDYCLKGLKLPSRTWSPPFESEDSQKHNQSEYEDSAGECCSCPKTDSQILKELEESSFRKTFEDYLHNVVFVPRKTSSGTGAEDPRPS
Chain of Insulin receptor (Homo sapiens) (P06213 763-1382 limits assumed): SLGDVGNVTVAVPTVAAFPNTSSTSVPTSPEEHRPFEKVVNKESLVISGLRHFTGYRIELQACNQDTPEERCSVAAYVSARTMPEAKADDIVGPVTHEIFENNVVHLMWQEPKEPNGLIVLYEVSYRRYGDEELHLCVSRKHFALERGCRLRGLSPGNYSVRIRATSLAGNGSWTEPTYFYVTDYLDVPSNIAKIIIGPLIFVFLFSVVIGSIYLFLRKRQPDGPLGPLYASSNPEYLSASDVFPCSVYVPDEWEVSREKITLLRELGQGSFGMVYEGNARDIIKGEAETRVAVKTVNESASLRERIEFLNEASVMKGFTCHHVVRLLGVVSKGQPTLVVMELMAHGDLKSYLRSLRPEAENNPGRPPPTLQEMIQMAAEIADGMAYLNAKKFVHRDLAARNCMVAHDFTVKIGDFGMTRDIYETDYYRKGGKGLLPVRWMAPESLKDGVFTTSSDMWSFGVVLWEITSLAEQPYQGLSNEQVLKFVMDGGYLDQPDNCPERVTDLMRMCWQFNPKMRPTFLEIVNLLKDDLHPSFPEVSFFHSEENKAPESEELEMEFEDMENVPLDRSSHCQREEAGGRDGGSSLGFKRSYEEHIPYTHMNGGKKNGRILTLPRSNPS

Structure (SMILES)	inhibition
C/C=C/Cn1cc(-c2ccc(C(=O)N3CCOCC3)cc2)c2cc[nH]c2c1=O	1.1%

Test system: LS180
Assay: Cytotoxicity against human LS180 cells measured after 8 days
Assay type: functional, cell-based
Conditions: LS180, 192 h

Structure (SMILES)	IC50
C/C=C/Cn1cc(-c2ccc(C(=O)N3CCOCC3)cc2)c2cc[nH]c2c1=O	20 µM

Test system: HCC1954
Assay: Cytotoxicity against human HCC1954 cells measured after 8 days
Assay type: functional, cell-based
Conditions: HCC1954, 192 h

Structure (SMILES)	IC50
C/C=C/Cn1cc(-c2ccc(C(=O)N3CCOCC3)cc2)c2cc[nH]c2c1=O	20 µM

Target: Mitogen-activated protein kinase kinase kinase kinase 4 (Homo sapiens) (UniProt O95819)
Assay: Inhibition of MAP4K4 (unknown origin) at 1 uM relative to control
Conditions: not given

Chain of Mitogen-activated protein kinase kinase kinase kinase 4 (Homo sapiens) (O95819 2-1239 limits assumed): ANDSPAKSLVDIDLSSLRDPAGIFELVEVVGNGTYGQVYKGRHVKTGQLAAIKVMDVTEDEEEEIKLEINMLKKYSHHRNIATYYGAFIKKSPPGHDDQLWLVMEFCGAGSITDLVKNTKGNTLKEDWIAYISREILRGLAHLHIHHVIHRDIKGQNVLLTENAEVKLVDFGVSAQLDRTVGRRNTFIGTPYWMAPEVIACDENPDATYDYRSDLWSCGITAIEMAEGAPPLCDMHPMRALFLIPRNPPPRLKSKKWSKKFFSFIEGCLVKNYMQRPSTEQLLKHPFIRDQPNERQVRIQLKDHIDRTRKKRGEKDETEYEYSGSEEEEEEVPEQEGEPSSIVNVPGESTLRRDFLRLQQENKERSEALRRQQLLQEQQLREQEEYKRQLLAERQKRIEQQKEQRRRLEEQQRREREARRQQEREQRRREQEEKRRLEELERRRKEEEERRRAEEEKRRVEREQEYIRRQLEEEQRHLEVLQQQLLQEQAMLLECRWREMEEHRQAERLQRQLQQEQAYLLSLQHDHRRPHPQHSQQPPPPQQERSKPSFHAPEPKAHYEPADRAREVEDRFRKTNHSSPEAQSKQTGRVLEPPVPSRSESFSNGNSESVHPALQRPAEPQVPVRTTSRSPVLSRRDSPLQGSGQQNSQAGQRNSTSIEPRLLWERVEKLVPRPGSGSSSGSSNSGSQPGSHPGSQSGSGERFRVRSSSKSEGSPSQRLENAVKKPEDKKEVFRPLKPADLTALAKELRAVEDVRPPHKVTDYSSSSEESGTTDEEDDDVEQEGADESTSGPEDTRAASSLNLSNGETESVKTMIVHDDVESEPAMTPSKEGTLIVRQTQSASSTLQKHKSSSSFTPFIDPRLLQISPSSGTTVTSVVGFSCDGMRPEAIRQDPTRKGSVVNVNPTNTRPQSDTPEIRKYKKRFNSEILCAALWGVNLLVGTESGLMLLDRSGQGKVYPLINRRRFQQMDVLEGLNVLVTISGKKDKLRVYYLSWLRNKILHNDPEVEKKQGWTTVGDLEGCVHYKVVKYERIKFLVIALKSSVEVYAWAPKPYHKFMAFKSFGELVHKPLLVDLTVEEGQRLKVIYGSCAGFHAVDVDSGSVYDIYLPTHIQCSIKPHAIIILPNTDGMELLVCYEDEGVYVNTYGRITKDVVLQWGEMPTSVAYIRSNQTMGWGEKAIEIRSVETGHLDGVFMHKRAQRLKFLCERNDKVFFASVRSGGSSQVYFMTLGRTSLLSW

Structure (SMILES)	inhibition
C/C=C/Cn1cc(-c2ccc(C(=O)N3CCOCC3)cc2)c2cc[nH]c2c1=O	4.8%

Test system: HEY
Assay: Cytotoxicity against human HEY cells measured after 8 days
Assay type: functional, cell-based
Conditions: 192 h

Structure (SMILES)	IC50
C/C=C/Cn1cc(-c2ccc(C(=O)N3CCOCC3)cc2)c2cc[nH]c2c1=O	20 µM

Test system: MFM-223
Assay: Cytotoxicity against human MFM-223 cells measured after 8 days
Assay type: functional, cell-based
Conditions: MFM-223, 192 h

Structure (SMILES)	IC50
C/C=C/Cn1cc(-c2ccc(C(=O)N3CCOCC3)cc2)c2cc[nH]c2c1=O	20 µM

Target: Aurora kinase B (Homo sapiens) (UniProt Q96GD4)
Assay: Inhibition of Aurora B (unknown origin) at 1 uM relative to control
Conditions: not given

Chain of Aurora kinase B (Homo sapiens) (Q96GD4 whole entry): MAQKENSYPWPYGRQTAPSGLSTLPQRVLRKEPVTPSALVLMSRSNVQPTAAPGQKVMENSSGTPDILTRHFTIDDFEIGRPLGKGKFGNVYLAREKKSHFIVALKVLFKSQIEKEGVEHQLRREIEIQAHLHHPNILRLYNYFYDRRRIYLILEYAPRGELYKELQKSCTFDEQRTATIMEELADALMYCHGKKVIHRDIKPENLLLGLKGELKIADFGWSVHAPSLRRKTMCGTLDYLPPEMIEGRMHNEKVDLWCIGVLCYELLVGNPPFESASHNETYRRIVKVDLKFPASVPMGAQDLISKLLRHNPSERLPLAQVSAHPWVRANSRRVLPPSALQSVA

Structure (SMILES)	inhibition
C/C=C/Cn1cc(-c2ccc(C(=O)N3CCOCC3)cc2)c2cc[nH]c2c1=O	-0.4%

Test system: OCI-AML-5
Assay: Cytotoxicity against human OCI-AML5 cells measured after 8 days
Assay type: functional, cell-based
Conditions: OCI-AML-5, 192 h

Structure (SMILES)	IC50
C/C=C/Cn1cc(-c2ccc(C(=O)N3CCOCC3)cc2)c2cc[nH]c2c1=O	20 µM

Test system: NCI-H1666
Assay: Cytotoxicity against human NCI-H1666 cells measured after 8 days
Assay type: functional, cell-based
Conditions: NCI-H1666, 192 h

Structure (SMILES)	IC50
C/C=C/Cn1cc(-c2ccc(C(=O)N3CCOCC3)cc2)c2cc[nH]c2c1=O	19.5 µM

Species on record: Homo sapiens
Assay: Displacement of [3H] Dofetilide from human potassium channel at 10 uM relative to control
Conditions: not given

Structure (SMILES)	Activity
C/C=C/Cn1cc(-c2ccc(C(=O)N3CCOCC3)cc2)c2cc[nH]c2c1=O	13%

Test system: not listed separately
Assay: Cytotoxicity against human HMY-1 cells measured after 8 days
Assay type: functional, cell-based
Conditions: HMY-1, 192 h

Structure (SMILES)	IC50
C/C=C/Cn1cc(-c2ccc(C(=O)N3CCOCC3)cc2)c2cc[nH]c2c1=O	20 µM

Target: Histone acetyltransferase KAT2A (Homo sapiens, UniProt Q92830)
Assay: Binding affinity to human partial length GCN5L2 (E726 to K837 residues) expressed in bacterial expression system by BROMOscan assay
Conditions: not given

Chain of Histone acetyltransferase KAT2A (Q92830 whole entry, the tested form may be a part): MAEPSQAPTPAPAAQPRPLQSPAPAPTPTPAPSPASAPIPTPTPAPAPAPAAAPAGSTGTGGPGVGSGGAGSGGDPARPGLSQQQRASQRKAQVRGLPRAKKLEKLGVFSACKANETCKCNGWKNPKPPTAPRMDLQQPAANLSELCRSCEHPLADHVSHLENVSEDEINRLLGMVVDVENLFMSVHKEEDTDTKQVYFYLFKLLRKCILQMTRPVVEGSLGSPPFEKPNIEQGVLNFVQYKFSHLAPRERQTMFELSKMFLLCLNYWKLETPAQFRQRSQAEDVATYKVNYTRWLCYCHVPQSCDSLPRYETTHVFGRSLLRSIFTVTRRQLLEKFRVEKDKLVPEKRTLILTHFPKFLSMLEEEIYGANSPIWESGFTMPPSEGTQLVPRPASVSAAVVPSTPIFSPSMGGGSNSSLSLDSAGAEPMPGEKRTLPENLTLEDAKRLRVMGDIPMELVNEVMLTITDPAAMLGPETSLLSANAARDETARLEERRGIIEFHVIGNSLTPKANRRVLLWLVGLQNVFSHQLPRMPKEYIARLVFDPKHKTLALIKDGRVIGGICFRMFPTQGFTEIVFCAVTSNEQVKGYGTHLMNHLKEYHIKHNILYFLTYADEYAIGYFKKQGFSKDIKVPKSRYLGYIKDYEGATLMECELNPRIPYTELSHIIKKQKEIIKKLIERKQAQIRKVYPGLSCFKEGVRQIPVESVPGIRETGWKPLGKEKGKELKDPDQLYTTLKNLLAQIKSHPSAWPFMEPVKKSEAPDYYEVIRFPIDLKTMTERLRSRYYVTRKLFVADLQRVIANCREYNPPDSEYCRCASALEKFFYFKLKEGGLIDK

Structure (SMILES)	Kd
C/C=C/Cn1cc(-c2cc(OC)c(C(C)(C)O)cc2OC)c2cc(C)[nH]c2c1=O	0.16 µM
C/C=C/Cn1cc(-c2ccc(C(=O)N3CCOCC3)cc2)c2cc[nH]c2c1=O	> 10 µM

Test system: not listed separately
Assay: Cytotoxicity against human MDST8 cells measured after 8 days
Assay type: functional, cell-based
Conditions: MDST8, 192 h

Structure (SMILES)	IC50
C/C=C/Cn1cc(-c2ccc(C(=O)N3CCOCC3)cc2)c2cc[nH]c2c1=O	20 µM

Test system: not listed separately
Assay: Cytotoxicity against human NCI-H2110 cells measured after 8 days
Assay type: functional, cell-based
Conditions: NCI-H2110, 192 h

Structure (SMILES)	IC50
C/C=C/Cn1cc(-c2ccc(C(=O)N3CCOCC3)cc2)c2cc[nH]c2c1=O	20 µM

Target: Bromodomain testis-specific protein (Homo sapiens, UniProt Q58F21)
Assay: Binding affinity to human partial length BRDT bromodomain 1 (N21 to E137 residues) expressed in bacterial expression system by BROMOscan assay
Conditions: not given

Structure (SMILES)	Kd
C/C=C/Cn1cc(-c2cc(OC)c(C(C)(C)O)cc2OC)c2cc(C)[nH]c2c1=O	2.1 µM
C/C=C/Cn1cc(-c2ccc(C(=O)N3CCOCC3)cc2)c2cc[nH]c2c1=O	2.5 µM

Test system: HOP-62
Assay: Cytotoxicity against human HOP-62 cells measured after 8 days
Assay type: functional, cell-based
Conditions: HOP-62, 192 h

Structure (SMILES)	IC50
C/C=C/Cn1cc(-c2ccc(C(=O)N3CCOCC3)cc2)c2cc[nH]c2c1=O	20 µM

Test system: LCLC-97TM1
Assay: Cytotoxicity against human LCLC-97TM1 cells measured after 8 days
Assay type: functional, cell-based
Conditions: LCLC-97TM1, 192 h

Structure (SMILES)	IC50
C/C=C/Cn1cc(-c2ccc(C(=O)N3CCOCC3)cc2)c2cc[nH]c2c1=O	20 µM

Test system: HCT-116
Assay: Cytotoxicity against human HCT-116 cells measured after 8 days
Assay type: functional, cell-based
Conditions: HCT-116, 192 h

Structure (SMILES)	IC50
C/C=C/Cn1cc(-c2ccc(C(=O)N3CCOCC3)cc2)c2cc[nH]c2c1=O	20 µM

Test system: A549
Assay: Cytotoxicity against human A549 cells measured after 8 days
Assay type: functional, cell-based
Conditions: A549, 192 h

Structure (SMILES)	IC50
C/C=C/Cn1cc(-c2ccc(C(=O)N3CCOCC3)cc2)c2cc[nH]c2c1=O	20 µM
